Source: PMC7178874, “The antibiotic furagin and its derivatives are isoform-selective human carbonic anhydrase inhibitors” (Journal of Enzyme Inhibition and Medicinal Chemistry, 2020)

Experiments:
Assay in all cases: stopped-flow CO2 hydration assay
Type in all cases: biochemical
hCA XII = target: T1, hCA XII (Homo sapiens, UniProt O43570); conditions: read-out: KI (nM)* / CA XII
T1 construct: gene CA12; recombinant, obtained in-house
Description: stopped-flow CO2 hydration assay on hCA XII

hCA IX = target: T2, hCA IX (Homo sapiens, UniProt Q16790); conditions: read-out: KI (nM)* / CA IX
T2 construct: gene CA9; recombinant, obtained in-house
Description: stopped-flow CO2 hydration assay on hCA IX

hCA II = target: T3, hCA II (Homo sapiens, UniProt P00918); conditions: read-out: KI (nM)* / CA II (converted)
T3 construct: gene CA2; recombinant, obtained in-house
Description: stopped-flow CO2 hydration assay on hCA II

hCA I = target: T4, hCA I (Homo sapiens, UniProt P00915); conditions: read-out: KI (nM)* / CA I (converted)
T4 construct: gene CA1; recombinant, obtained in-house
Description: stopped-flow CO2 hydration assay on hCA I

T4 sequence (P00915 2-261): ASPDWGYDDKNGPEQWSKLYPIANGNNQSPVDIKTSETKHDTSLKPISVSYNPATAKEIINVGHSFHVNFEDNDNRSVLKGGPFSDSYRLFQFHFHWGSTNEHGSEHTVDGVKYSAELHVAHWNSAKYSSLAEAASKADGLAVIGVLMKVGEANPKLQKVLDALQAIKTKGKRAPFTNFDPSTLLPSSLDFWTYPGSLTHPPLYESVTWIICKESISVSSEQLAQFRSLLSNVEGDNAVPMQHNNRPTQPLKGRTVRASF
T1 sequence (O43570 25-354 limits assumed): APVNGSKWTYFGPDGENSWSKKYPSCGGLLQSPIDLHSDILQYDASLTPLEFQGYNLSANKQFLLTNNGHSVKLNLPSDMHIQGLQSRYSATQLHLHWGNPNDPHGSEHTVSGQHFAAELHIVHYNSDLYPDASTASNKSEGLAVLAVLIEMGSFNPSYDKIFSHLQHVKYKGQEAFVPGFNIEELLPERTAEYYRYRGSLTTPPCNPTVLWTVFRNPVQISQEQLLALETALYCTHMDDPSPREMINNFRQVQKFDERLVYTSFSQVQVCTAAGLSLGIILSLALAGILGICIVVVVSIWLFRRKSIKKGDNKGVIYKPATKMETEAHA

| Ki (hCA XII) [nM] | Ki (hCA IX) [nM] | Ki (hCA II) [nM] | Ki (hCA I) [nM] | Structure (SMILES) |
| --- | --- | --- | --- | --- |
| 57 | 260 | 9600 | > 100000 | O=C1CN(/N=C/C=C/c2ccc([N+](=O)[O-])o2)C(=O)N1 [Furagin] |
| 5600 | 3500 | 900 | 39600 | O=C1CN(N=Cc2ccccc2)C(=O)N1 [compound 2, 1-(Benzylideneamino)-imidazolidine-2,4-dione] |
| 4700 | 1200 | 6400 | 57600 | COc1ccc(C=NN2CC(=O)NC2=O)cc1 [compound 3, 1-((4-Methoxybenzylidene)amino)imidazolidine-2,4-dione] |
| 2800 | 7400 | 11100 | > 100000 | O=C1CN(N=Cc2ccc([N+](=O)[O-])cc2)C(=O)N1 [compound 4, 1-((4-Nitrobenzylidene)amino)imidazolidine-2,4-dione] |
| 930 | 4900 | 8300 | > 100000 | COC(=O)c1ccc(C=NN2CC(=O)NC2=O)cc1 [compound 5, Methyl 4-(((2,4-dioxoimidazolidin-1-yl)imino)methyl)benzoate] |
| 160 | 1100 | 4000 | 19100 | O=C1CN(N=CCCCC=NN2CC(=O)NC2=O)C(=O)N1 [compound 6, 1,1’-((Pentane-1,5-diylidene)bis(azaneylylidene))bis(imidazolidine-2,4-dione)] |
| 1700 | 850 | 710 | 16800 | O=C1CN(N=Cc2ccoc2)C(=O)N1 [compound 7, 1-((Furan-3-ylmethylene)amino)imidazolidine-2,4-dione] |
| 910 | 350 | 540 | > 100000 | O=C1CN(N=Cc2ccc(OCc3ccccc3)cc2)C(=O)N1 [compound 8, 1-((4-(Benzyloxy)benzylidene)amino)imidazolidine-2,4-dione] |
| 440 | 810 | 23600 | 45900 | CCOC(=O)/C=C/C=NN1CC(=O)NC1=O [compound 9, Ethyl (2E)-4-((2,4-dioxoimidazolidin-1-yl)imino)but-2-enoate] |
| 880 | 2900 | 16500 | 28800 | CC(C)=CC=NN1CC(=O)NC1=O [compound 10, 1-((3-Methylbut-2-en-1-ylidene)amino)imidazolidine-2,4-dione] |
| 360 | 400 | 3100 | > 100000 | COc1ccc(/C=C/C=NN2CC(=O)NC2=O)cc1 [compound 11, 1-(((2e)-3–(4-methoxyphenyl)allylidene)amino)imidazolidine-2,4-dione] |
| 150 | 5800 | 59900 | > 100000 | O=C1CN(N=Cc2ccc(O)cc2O)C(=O)N1 [compound 12, 1-((2,4-Dihydroxybenzylidene)amino)imidazolidine-2,4-dione] |
| 230 | 7300 | 14200 | 90700 | O=C1CN(N=Cc2ccc(B(O)O)cc2)C(=O)N1 [compound 13] |
| 1300 | 4500 | 4200 | 51800 | O=C1CN(N=Cc2ccccn2)C(=O)N1 [compound 14, 1-((Pyridin-2-ylmethylene)amino)imidazolidine-2,4-dione] |
| 3200 | 2300 | 620 | 45600 | O=C1CN(N=Cc2cccnc2)C(=O)N1 [compound 15, 1-((Pyridin-3-ylmethylene)amino)imidazolidine-2,4-dione] |
| 810 | 1600 | 3300 | 26600 | O=C1CN(N=Cc2ccncc2)C(=O)N1 [compound 16, 1-((Pyridin-4-ylmethylene)amino)imidazolidine-2,4-dione] |
| 350 | 560 | 12400 | 9600 | O=C1CN(N=Cc2cnc[nH]2)C(=O)N1 [compound 17, 1-(((1 h-Imidazol-5-yl)methylene)amino)imidazolidine-2,4-dione] |
